# From patent publication US8986733B2, “Materials and methods for nerve repair” (University of Florida Research Foundation, Inc., priority 2001, dated 2015)
# Assays:
# [1] = tested on: embryonic chick DRG neurons; assay: Cryoculture bioassay on sections of acellular rat nerve segments; type: cell-based
# Experimental: Cryoculture bioassay. Cryoculture is a neurite outgrowth assay in which neurons are cultured directly on fresh/frozen nerve sections and was performed as described previously (Ferguson T A et al. [2000] Mol Cell Neurosci, 16:157-167). Briefly, chondroitinase- and vehicle-treated nerve segments were sectioned at 20 μm, mounted on sterile, aminopropyltriethoxysilane (APTS)-coated coverslips and stored at −20° C. until used. Where indicated, sections were treated with chondroitinase ABC (0.1 unit/ml) or vehicle (50 mM Tris-HCl, pH 8.0), containing 50 mM NaCl) for 2 h at 37° C. Purified dorsal root ganglionic (DRG) neurons from day 8 chick embryos were seeded directly on the nerve sections in a defined N2 medium (Bottenstein J E et al. [1980] Exp Cell Res 125:183-190) containing 10 ng/ml nerve growth factor. […] Neurite lengths were measured directly using IMAGE-PRO PLUS software (MEDIA CYBERNETICS, Silver Springs, Md.). At least 250 neurons with neurites greater than one cell body (˜15 μm) were scored for each condition in each experiment.
# Inactivation of inhibitory CSPG in chondroitinase-treated acellular nerve was determined by cryoculture bioassay. Embryonic chick DRG neurons were seeded onto sections of prepared nerve segments and the neurite-promoting activity was assessed by scoring neurite growth. […]
# CSPG = assay: CSPG-neoepitope immunolabeling of injured sciatic nerve after in vivo injection; parameters: species or system rat; details: single injection 1 U in 2 μl, 2 mm distal to injury; 4 days (transection) or 2 days (crush)
# Experimental: Surgical procedures for nerve transection and nerve crush experiments. All surgical procedures were performed according to Institutional Animal Care and Use Committee (IACUC) approved protocols. Young adult SPRAGUE DAWLEY rats (HARLAN Indianapolis, Ind.) were deeply anesthetized with xylazine (15 mg/kg, i.m.) followed by ketamine-HCl (110 mg/kg, i.p.). Six animals received bilateral nerve crush injuries. Sciatic nerves were exposed and then crushed with firm pressure for thirty seconds with a DUMONT #5 forceps at a site 4 mm distal to the tendon of the internal obdurator. The crush site was marked with an epineurial suture. In a separate set of experiments, eight rats received bilateral sciatic nerve transection injuries using serrated scissors. The proximal and distal stumps were […] by epineurial neurorrhaphy using 9-0 ETHILON sutures. Fibrin glue (fibrinogen and thrombin) was then applied to stabilize the union. In both injury models, the right sciatic nerves were injected 2-mm distal to the injury with chondroitinase ABC (1 U in 2 μl) (high-purity, protease-free; SIGMA CHEMICAL CO., St. Louis, Miss.). Left sciatic nerves (with the same injury as the right side) were injected with vehicle alone (0.1% bovine serum albumin in PBS). […]
# Immunocytochemistry. Axonal regeneration was assessed by GAP-43 immunofluorescence and digital image analysis. […]
substance,measurement,setting,value
chondroitinase ABC,effect of post-treatment on neurite-promoting activity,[1]; sections from en bloc chondroitinase-treated nerve grafts,only a slight additive effect
same,increase in neurite-promoting activity by post-treatment of sections,"[1]; sections of acellular nerve treated en bloc with vehicle only, post-treated after sectioning",86%
same,CSPG degradation in extracellular matrix around injection site,CSPG,"substantially, if not completely, degraded CSPG"
